Results on 4 compounds are retold here after US20220211657A1, “METHODS OF TREATING GASTROINTESTINAL CANCERS AND TUMORS THEREOF USING COMBINATION THERAPY” (GEORGETOWN UNIVERSITY, priority 2019, published 2022).

In series [1] the test system is metastatic pancreatic cancer. As to conditions: first-line standard of care; cited from earlier work.
Series [2] relates to BRCA1/2-mutated tumors. As to conditions: out of 24 patients with BRCA1/2-mutated tumors; cited from earlier work.
The subject of series [3] is BRCA1/2-mutated pancreatic cancer. As to conditions: cited from earlier work.
Series [4] in a line: Phase I dose escalation of veliparib plus FOLFOX (dose limiting toxicities, recommended Phase II dose). It counts as in vivo. The protocol: The study was designed as a single center, Phase I/II, open label study of veliparib plus FOLFOX. At the time of study initiation, the dose and schedule for modified FOLFOX (de Gramont et al., “Leucovorin and Fluorouracil With or Without Oxaliplatin as First-Line Treatment in Advanced Colorectal Cancer,” J. Clin. Oncol. 18:2938-2947 (2000), which is hereby incorporated by reference in its entirety) was used (5-fluorouracil bolus 400 mg/m^2 Day 1; leucovorin 400 mg/m^2 Day 1; oxaliplatin 85 mg/m^2 Day 1; and 5-fluorouracil 2400 mg/m^2 continuous infusion over 46 hours, Days 1-3). Each cycle was 14 days. […] With regards to the veliparib, for the Phase I portion, the dose of veliparib was escalated in a standard 3+3 design from the lowest dose of 40 mg twice a day (BID) days 1-7 of each 14-day cycle. Dose levels were 40 mg, 60 mg, 80 mg, 100 mg, 150 mg, 200 mg, and 250 mg. For the Phase II portion, the recommended Phase II dose (RP2D) was 200 mg of veliparib, though the protocol did allow for stepwise de-escalation to 150 mg and then to 100 mg for toxicity after the first cycle. […] Tumor response was assessed radiographically every 8-12 weeks using Response Evaluation Criteria in Solid Tumors criteria version 1.1 (Eisenhauer et al., “New Response Evaluation Criteria in Solid Tumours: Revised RECIST Guideline (Version 1.1),” Eur. J. Cancer 45:228-247 (2009), which is hereby incorporated by reference in its entirety). […] The primary objective of the Phase I portion was to determine the recommended Phase II dose, with the primary endpoint being adverse events, as measured by the National Cancer Institute Common Terminology Criteria for Adverse Events, Version 4.03, which is hereby incorporated by reference in its entirety. […]
The primary objective of the Phase I portion of the trial was to determine the recommended Phase II dose, by assessing the safety and tolerability as determined by adverse events, defined by the National Cancer Institute Common Terminology Criteria for Adverse Events, Version 4.03, which is hereby incorporated by reference in its entirety. […]

The nature of series [5]: Pharmacokinetic assessment of veliparib (Day 1, 3, 7 samples). As to conditions: 14 subjects in 5 dosing cohorts. Format: in vivo, human. The procedure:
For the Phase I portion of the study, plasma samples were obtained from patients on Day 1 (pre-dose), Day 3, and Day 7 for pharmacokinetic (PK) assessment of veliparib. Results were compared to historical controls to identify any effect on veliparib pharmacokinetics by oxaliplatin or 5-fluorouracil. […] Next generation sequencing (NGS) of cancer-related genes was performed on tumor samples. Results from patients were captured, if ordered by the treating physician prior to enrollment, and sequencing was performed commercially by Foundation Medicine (FM), Caris Life Sciences, or through commercial germline testing labs such as Myriad or Invitae. […] Patients were defined as harboring HR-DDR mutations if a known pathogenic mutation in one of the HR-DDR genes (including but not limited to: ARID1A, ATM, ATRX, MRE11A, NBN, PTEN, RAD50/51/51B, BARD1, BLM, BRCA1, BRCA2, BRIP1, FANCA/C/D2/E/F/G/L, PALB2, WRN, CHEK2, CHEK1, BAP1, FAM175A, SLX4, MLL2, or XRCC) was identified in a blood sample (germline) or tumor sample (somatic).

For `Nc1ccn([C@@H]2O[C@H](CO)[C@@H](O)C2(F)F)c(=O)n1` [gemcitabine], in series [1], the response rate is recorded as 7%.
In the case of `O=C(c1cc(Cc2n[nH]c(=O)c3ccccc23)ccc1F)N1CCN(C(=O)C2CC2)CC1` [olaparib], the patients who responded in series [2] is given as 4 patients.
As for `CNCc1ccc(-c2[nH]c3cc(F)cc4c3c2CCNC4=O)cc1` [rucaparib], in series [3] (in vivo), the “patients who did not respond to platinum but did respond” value is “two”. In addition, the responses in series [3] (out of 19 patients with BRCA1/2-mutated pancreatic cancer) was 4.
With `C[C@]1(c2nc3c(C(N)=O)cccc3[nH]2)CCCN1` [veliparib], in series [4] (human, in vivo), the “protocol-defined dose limiting toxicity” value was “treatment delay of >3 weeks”. Further, the dose limiting toxicities result in series [4] (in vivo) is given as “one”. Further, in series [4] (veliparib BID days 1-7 of each 14-day cycle plus FOLFOX), the “recommended Phase II dose” value turned out to be 200 mg. Also, the “impact of co-administration of FOLFOX on veliparib pharmacokinetics” value in series [5] is “no apparent impact”.
